According to PMC11359197 (Viruses, 2024):

These molecules were tested against released M^pro-GST (Severe acute respiratory syndrome coronavirus 2, UniProt P0DTD1, Q3569E).
Assay type: cell-based, SARS-CoV-2

Structure (SMILES) | GFP signal (GFP degradation by the released M^pro-GST) | GFP signal versus DMSO controls, pilot screen
CC(C)C[C@H](NC(=O)[C@H]1O[C@@H]1C(=O)O)C(=O)NCCCCN=C(N)N [E-64] | background levels | –
CC(C)(C)NC(=O)N[C@H](C(=O)N1C[C@H]2[C@@H]([C@H]1C(=O)NC(CC1CCC1)C(=O)C(N)=O)C2(C)C)C(C)(C)C (some centres unmarked) [boceprevir, Boceprevir] | consistently suppressed the GFP degradation | higher GFP signals
Cc1cccc(C)c1OCC(=O)N[C@@H](Cc1ccccc1)[C@@H](O)C[C@H](Cc1ccccc1)NC(=O)[C@H](C(C)C)N1CCCNC1=O [lopinavir] | background levels | –
CC(C)[C@H](O)C(=O)N[C@@H](C)C(=O)N[C@@H]1C(=O)N(C)CCc2ccccc21 [LY450139] | – | higher GFP signals
COC(=O)N[C@H](C(=O)N[C@@H](Cc1ccccc1)[C@@H](O)CN(Cc1ccc(-c2ccccn2)cc1)NC(=O)[C@@H](NC(=O)OC)C(C)(C)C)C(C)(C)C [atazanavir] | background levels | –
CC(NC(=O)[C@H](Cc1ccccc1)NC(=O)OCc1ccccc1)C(=O)CF (some centres unmarked) [Z-FA-FMK] | consistently suppressed the GFP degradation | higher GFP signals
